Assays:
[1] = test system: EGFR; assay: cDNA PCR analysis of exon skipping / full-size transcript in EGFR; assay type: cell-based, Human; details: intron-targeting gRNA paired with L858R targeting CRISPR, compared to L858R targeting CRISPR alone
Experimental: After CRISPR reactions, total RNA was prepared, and cDNA synthesized for PCR amplification of the target region from EGFR. PCR-amplified DNA was then analyzed by electrophoresis through a 1% agarose gel for 75 minutes at 80v. DNA was stained with SYBR Safe. Lanes 1 and 13: NEB 2 Log Ladder; Lane 2: Scrambled gRNA; Lane 3: EGFR 21-22 SureKill gRNA 11 alone; Lane 4: EGFR 21-22 SureKill gRNA 13 alone; Lane 5: EGFR 21-22 SureKill gRNA 16 alone; Lane 6: EGFR 21-22 SureKill gRNA 17 alone; Lane 7: EGFR 21-22 SureKill gRNA 19 alone; Lane 8: EGFR 21-22 SureKill gRNA 22 alone; Lane 9: EGFR 21-22 SureKill gRNA 23 alone; Lane 10: EGFR 21-22 SureKill gRNA 27 alone; Lane 11: EGFR 21-22 SureKill gRNA 28 alone; Lane 12: EGFR 21-22 SureKill gRNA 29 alone. On the left side of the image are markers indicating DNA size in bp.
After CRISPR reactions, total RNA was prepared, and cDNA synthesized for semi-quantitative PCR amplification of the target region from EGFR. PCR amplification was performed for 25 cycles. PCR-amplified DNA was then analyzed by electrophoresis through a 1% agarose gel for 75 minutes at 80v. DNA was stained with SYBR Safe. […]
Transfections were carried out using the Lonza Nuclefector 4d. […] RNPs were complexed at 250:50 pmol for 30 minutes prior to transfection, during which time cells were harvested and counted. […]

[2] = test system: EGFR gene; assay: Screening of SureKill guide RNAs in the EGFR gene for ability to induce indels; assay type: cell-based; details: transfections of individual guide RNAs (spCas9 RNP); PDMR human lung adenocarcinoma cells with EGFR L858R; DECODR
Experimental: Human lung squamous cell carcinoma NCI-H1703 clone 44-25 cells were derived from NCI-H1703 cells (#CRL-5889) which were purchased from ATCC (Manassas, VA, USA). NCI-H1703 clone 44-25 cells contains R34G mutation (C 4 G) in NFE2L2 gene. H1703 clone 44-25 cells were cultured in ATCC formulation RPMI-1640 with 10% FBS. T75 flasks were used and cells were split 1:5 upon reaching 90% confluency. Human lung adenocarcinoma cells (Dist. Lot. No. LG0703-F948-PDC) were acquired from the National Institute of Health's National Cancer Institute's Patient-Derived Models Repository (PDMR). This PDMR cell line contains the L858R mutation (T 4 G) in the EGFR gene. The PDMR cells were maintained in Advanced DMEM/F12 media containing 10% FBS, 0.4 μg/mL hydrocortisone, 0.01 μg/mL EGF Recombinant Human Protein, 24 μg/mL adenine, and 2 mM L-Glutamine. T75s were used and cells were split 1:3 upon reaching 90% confluency. All cultures were maintained in cell culture incubators at 37° C. and 5% CO2.
Ribonucleoproteins (RNP) are complexed by incubating 250 pmol of purified synthetic gRNA (Synthego Corporation, Redwood City, CA) with 50 pmol of purified spCas9 (Synthego Corporation, Redwood City, CA) at room temperature in nuclease-free 1× TE buffer for 15 minutes.
Transfections were carried out using the Lonza Nuclefector 4d. Cultures in t75s at 90% confluence were split 1:2 24 hours prior to transfection. RNPs were complexed at 250:50 pmol for 30 minutes prior to transfection, during which time cells were harvested and counted. All reactions were 100 μL and contained 1 e6 cells. Lonza SF solution and Nucleofector program CM-130 were used in all transfections of the H1703 cell line. Lonza SE solution and Nucleofector program CA-137 were used in all transfections of the PDMR. After transfection, 500 μL of media that had been equilibrated to cell culture CO2 and temperature conditions was added to each 100 μL cuvettes. Cuvettes were then placed in the incubator. After 20 minutes, the entire content of each cuvette was seeded into 3 mL of media in a 6 well plate. After 72 hours, samples were dissociated using 200 μL Trypsin 0.25% for 5 minutes. 800 μL culture media was used to quench and split into 1.5 mL tubes each containing 500 μL of the sample. Tubes were spun at 300×g for 5 minutes. One of the tubes was placed in the −20° C. freezer and the other was resuspended in 500 μL of Trizol for RNA extraction and cDNA synthesis.
All sequencing was performed on the Applied Biosystems SeqStudio. The BigDye Terminator v3.1 Cycle Sequencing Kit was used to prepare samples for sequencing. Resulting sequences were analyzed with DECODR to determine indel rates (Bloh et al., CRISPR J. 4:120-31 (2021)).
Human EGFR is a frequently mutated gene that is associated with cancers. One of the most common mutations is L858R which results in the creation of a novel PAM site, making it a targetable sequence by CRISPR. Like the R34G mutation, the CRISPR designed to target the L858R mutation is not highly efficient on its own. By combining the L858R-targeting CRISPR with another CRISPR of high efficiency in a downstream intronic region, exon skipping can be induced, resulting in a higher efficiency of functional knockout than the L858R targeting CRISPR alone. To find a suitable gRNA to pair with the L858R targeting CRISPR, we selected the intron between exons 21 and 22 (FIG. 6). A series of gRNAs were created in this region and screened for their ability to induce indels, a measure of their activity using DECODR (Bloh et al., CRISPR J. 4:120-31 (2021)) (Table 3).
In Table 3, all sequences are listed from 5′ to 3′. Indel percent, a measure of CRISPR activity, is based on transfections of individual guide RNAs. All guide RNAs, with the exception of L858R, were designed in the intron between exons 21 and 22.

EGFR 21-22 SureKill gRNA 28: EGFR intron 21-22 guide RNA GCAGCCTGGTCCCTGGTGTC, SEQ ID NO:51 (listed as DNA, chemistry not given here)
reduction in the full-size transcript (cDNA, semi-quantitative PCR 25 cycles) [1]: enhanced reduction in the full-size transcript | indel % [2]: 97.6%
